Reference: ChEMBL document CHEMBL3576818, “Structure-Activity Relationships of (+)-Naltrexone-Inspired Toll-like Receptor 4 (TLR4) Antagonists” (J Med Chem, 2015)

Assays:
[1] = Cytotoxicity against mouse BV2 cells assessed as reduction in viability by crystal violet staining method; conditions: BV-2
Toll-like receptor 4 = target: T1, Toll-like receptor 4 (Mus musculus, UniProt Q9QUK6)
T1 sequence (Q9QUK6 whole entry): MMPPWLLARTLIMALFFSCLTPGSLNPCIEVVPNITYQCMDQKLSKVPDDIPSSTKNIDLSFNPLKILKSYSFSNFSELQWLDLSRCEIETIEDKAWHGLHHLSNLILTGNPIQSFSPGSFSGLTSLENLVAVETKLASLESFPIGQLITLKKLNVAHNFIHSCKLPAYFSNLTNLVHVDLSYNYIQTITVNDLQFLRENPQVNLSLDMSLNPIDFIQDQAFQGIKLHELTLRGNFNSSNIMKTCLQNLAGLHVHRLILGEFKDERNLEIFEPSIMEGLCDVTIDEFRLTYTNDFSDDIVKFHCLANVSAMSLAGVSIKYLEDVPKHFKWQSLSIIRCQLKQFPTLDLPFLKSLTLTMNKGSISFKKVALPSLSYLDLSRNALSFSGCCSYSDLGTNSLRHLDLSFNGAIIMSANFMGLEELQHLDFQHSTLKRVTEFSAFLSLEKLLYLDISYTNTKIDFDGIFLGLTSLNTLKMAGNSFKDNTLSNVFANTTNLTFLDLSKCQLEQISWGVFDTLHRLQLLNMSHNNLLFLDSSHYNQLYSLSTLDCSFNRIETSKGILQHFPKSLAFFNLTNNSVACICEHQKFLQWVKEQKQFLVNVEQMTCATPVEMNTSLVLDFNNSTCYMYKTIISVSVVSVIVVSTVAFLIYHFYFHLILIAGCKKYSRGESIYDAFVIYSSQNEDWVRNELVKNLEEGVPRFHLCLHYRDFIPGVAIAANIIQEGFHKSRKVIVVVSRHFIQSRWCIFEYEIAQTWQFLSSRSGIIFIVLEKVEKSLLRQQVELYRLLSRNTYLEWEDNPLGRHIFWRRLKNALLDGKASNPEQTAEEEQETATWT
Description: Antagonist activity against TLR4 in mouse BV2 cells assessed as inhibition of LPS-induced nitric oxide production incubated for 24 hrs by 2,3-diaminonaphthalene dye based assay

CCCCCN1CC[C@@]23c4c5ccc(O)c4O[C@@H]2C(=O)CC[C@]3(O)[C@@H]1C5
IC50 [1]: > 200 µM
IC50 (Toll-like receptor 4): 7.5 µM

CCCCCCN1CC[C@@]23CCCC[C@]2(O)[C@@H]1Cc1ccc(O)cc13
IC50 (Toll-like receptor 4): 5.2 µM

CCCCN1CC[C@@]23c4c5ccc(O)c4O[C@@H]2C(=O)CC[C@]3(O)[C@@H]1C5
IC50 [1]: > 200 µM
IC50 (Toll-like receptor 4): 24.8 µM

O=C1CC[C@]2(O)[C@@H]3Cc4ccc(O)c5c4[C@]2(CCN3CCCc2ccccc2)[C@@H]1O5
IC50 [1]: 69.3 µM
IC50 (Toll-like receptor 4): 1.4 µM

O=C1CC[C@]2(O)[C@@H]3Cc4ccc(O)c5c4[C@]2(CCN3CCCCCc2ccccc2)[C@@H]1O5
IC50 [1]: 26.8 µM
IC50 (Toll-like receptor 4): 1.7 µM

O=C1CC[C@]2(O)[C@@H]3Cc4ccc(O)c5c4[C@]2(CCN3CC2CC2)[C@@H]1O5
IC50 [1]: > 400 µM
IC50 (Toll-like receptor 4): 106 µM

CCCCCCCCN1CC[C@@]23c4c5ccc(O)c4O[C@@H]2C(=O)CC[C@]3(O)[C@@H]1C5
IC50 (Toll-like receptor 4): 1.7 µM

COc1ccc2c3c1O[C@@H]1C(=O)CC[C@]4(O)C(C2)N(CCc2ccccc2)CC[C@@]314
IC50 (Toll-like receptor 4): 5.7 µM

Oc1ccc2c3c1O[C@@H]1[C@@H](O)CC[C@]4(O)[C@H](C2)N(CC2CC2)CC[C@@]314
IC50 [1]: > 400 µM
IC50 (Toll-like receptor 4): 243 µM

O=C1CC[C@]2(O)CN(CC3CC3)CC[C@]23c2cccc(O)c2O[C@H]13
IC50 [1]: > 400 µM
IC50 (Toll-like receptor 4): 76.2 µM

O=C1CC[C@]2(O)[C@@H]3Cc4ccc(O)c5c4[C@]2(CCN3CCc2ccccc2)[C@@H]1O5
IC50 [1]: 141 µM
IC50 (Toll-like receptor 4): 1.4 µM

Oc1ccc2c(c1)[C@]13CCCC[C@]1(O)[C@H](C2)N(CC1CC1)CC3
IC50 [1]: 366 µM
IC50 (Toll-like receptor 4): 48.9 µM

Oc1ccc2c3c1O[C@@H]1[C@H](O)CC[C@]4(O)[C@H](C2)N(CC2CC2)CC[C@@]314
IC50 [1]: > 400 µM
IC50 (Toll-like receptor 4): 144 µM

CCCCCCN1CC[C@@]23c4c5ccc(O)c4O[C@@H]2C(=O)CC[C@]3(O)[C@@H]1C5
IC50 [1]: 121 µM
IC50 (Toll-like receptor 4): 6.7 µM

CCCCCCN1CC[C@@]23C=CCC[C@]2(O)[C@@H]1Cc1ccc(O)cc13
IC50 [1]: 155 µM
IC50 (Toll-like receptor 4): 22.5 µM

O=C1CC[C@]2(O)[C@@H]3Cc4ccc(O)c5c4[C@]2(CCN3CCc2ccccc2F)[C@@H]1O5
IC50 [1]: 65.7 µM
IC50 (Toll-like receptor 4): 1.8 µM

O=C1CC[C@]2(O)[C@@H]3Cc4ccc(O)cc4[C@]2(CCN3CC2CC2)C1
IC50 [1]: > 400 µM
IC50 (Toll-like receptor 4): 118 µM

CCCCCCCN1CC[C@@]23c4c5ccc(O)c4O[C@@H]2C(=O)CC[C@]3(O)[C@@H]1C5
IC50 [1]: 68.5 µM
IC50 (Toll-like receptor 4): 3 µM

O=C1CC[C@]2(O)[C@@H]3Cc4ccc(O)c5c4[C@]2(CCN3CCCCc2ccccc2)[C@@H]1O5
IC50 [1]: 37.1 µM
IC50 (Toll-like receptor 4): 1.2 µM
